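96-well plates; 48 h exposure; 5 concentrations. Endpoints by linear interpolation between flanking doses. Not reached: highest tested concentration assigned. Here, GI50 denotes the concentration required for 50% inhibition of growth.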 Active and inactive are the calls of the source. Cut-off read from the data, not from the text of the source: active = GI50 up to about 1.1 µM and inactive = higher.
Tests used:
Test in all cases: NCI tumour cell line growth inhibition, 48 h
PC-3 = tested on: PC-3
SF-268 = tested on: SF-268
HCT-116 = tested on: HCT-116
DU-145 = tested on: DU-145
ACHN = tested on: ACHN
T47D = tested on: T47D
SN12C = tested on: SN12C
LOX IMVI = tested on: LOX IMVI
OVCAR-4 = tested on: OVCAR-4
MDA-MB-435 = tested on: MDA-MB-435
RPMI-8226 = tested on: RPMI-8226
UO-31 = tested on: UO-31
SR = tested on: SR
NCI-H522 = tested on: NCI-H522
SK-OV-3 = tested on: SK-OV-3
A498 = tested on: A498
SNB-19 = tested on: SNB-19
786-0 = tested on: 786-0
MDA-N = tested on: MDA-N
NCI-H460 = tested on: NCI-H460
SW-620 = tested on: SW-620
KM12 = tested on: KM12
M14 = tested on: M14
MDA-MB-231 = tested on: MDA-MB-231
HOP-92 = tested on: HOP-92
SF-539 = tested on: SF-539
A549 = tested on: A549
OVCAR-3 = tested on: OVCAR-3
HCC 2998 = tested on: HCC 2998
TK-10 = tested on: TK-10
CAKI-1 = tested on: CAKI-1
MOLT-4 = tested on: MOLT-4
NCI/ADR-RES = tested on: NCI/ADR-RES
U-251 = tested on: U-251
UACC-62 = tested on: UACC-62
MCF7 = tested on: MCF7
K562 = tested on: K562
SF-295 = tested on: SF-295
SK-MEL-5 = tested on: SK-MEL-5
Hs-578T = tested on: Hs-578T
EKVX = tested on: EKVX
HT-29 = tested on: HT-29
SNB-75 = tested on: SNB-75
UACC-257 = tested on: UACC-257
OVCAR-5 = tested on: OVCAR-5
HL-60 = tested on: HL-60
CCRF-CEM = tested on: CCRF-CEM
IGROV-1 = tested on: IGROV-1
HCT-15 = tested on: HCT-15
NCI-H23 = tested on: NCI-H23
COLO 205 = tested on: COLO 205
Malme-3M = tested on: Malme-3M
HOP-62 = tested on: HOP-62
OVCAR-8 = tested on: OVCAR-8
SK-MEL-2 = tested on: SK-MEL-2
SK-MEL-28 = tested on: SK-MEL-28

Structure (SMILES): CC1(C)CC2=NOS3=C2C(=NO3)C1c1ccccn1 (stereo unspecified)
- GI50 (PC-3): > 100 µM (inactive)
- GI50 (SF-268): > 100 µM (inactive)
- GI50 (HCT-116): 48.8 µM (inactive)
- GI50 (DU-145): > 100 µM (inactive)
- GI50 (ACHN): 74.8 µM (inactive)
- GI50 (T47D): > 100 µM (inactive)
- GI50 (SN12C): > 100 µM (inactive)
- GI50 (LOX IMVI): 36.1 µM (inactive)
- GI50 (OVCAR-4): > 100 µM (inactive)
- GI50 (MDA-MB-435): 18.6 µM (inactive)
- GI50 (RPMI-8226): > 100 µM (inactive)
- GI50 (UO-31): 61.7 µM (inactive)
- GI50 (SR): 39.3 µM (inactive)
- GI50 (NCI-H522): 38.5 µM (inactive)
- GI50 (SK-OV-3): > 100 µM (inactive)
- GI50 (A498): > 100 µM (inactive)
- GI50 (SNB-19): > 100 µM (inactive)
- GI50 (786-0): 34.7 µM (inactive)
- GI50 (MDA-N): 30.9 µM (inactive)
- GI50 (NCI-H460): 33.7 µM (inactive)
- GI50 (SW-620): 69.5 µM (inactive)
- GI50 (KM12): 61.2 µM (inactive)
- GI50 (M14): 40.7 µM (inactive)
- GI50 (MDA-MB-231): > 100 µM (inactive)
- GI50 (HOP-92): > 100 µM (inactive)
- GI50 (SF-539): 64 µM (inactive)
- GI50 (A549): 83.2 µM (inactive)
- GI50 (OVCAR-3): 31 µM (inactive)
- GI50 (HCC 2998): > 100 µM (inactive)
- GI50 (TK-10): > 100 µM (inactive)
- GI50 (CAKI-1): > 100 µM (inactive)
- GI50 (MOLT-4): 34.3 µM (inactive)
- GI50 (NCI/ADR-RES): > 100 µM (inactive)
- GI50 (U-251): > 100 µM (inactive)
- GI50 (UACC-62): 44.1 µM (inactive)
- GI50 (MCF7): > 100 µM (inactive)
- GI50 (K562): 24 µM (inactive)
- GI50 (SF-295): > 100 µM (inactive)
- GI50 (SK-MEL-5): 17.8 µM (inactive)
- GI50 (Hs-578T): > 100 µM (inactive)
- GI50 (EKVX): > 100 µM (inactive)
- GI50 (HT-29): 56.8 µM (inactive)
- GI50 (SNB-75): > 100 µM (inactive)
- GI50 (UACC-257): 28.9 µM (inactive)
- GI50 (OVCAR-5): > 100 µM (inactive)
- GI50 (HL-60): 24.3 µM (inactive)
- GI50 (CCRF-CEM): 29 µM (inactive)
- GI50 (IGROV-1): 29.6 µM (inactive)
- GI50 (HCT-15): 20 µM
- GI50 (NCI-H23): > 100 µM (inactive)
- GI50 (COLO 205): 31.2 µM (inactive)
- GI50 (Malme-3M): 46.9 µM (inactive)
- GI50 (HOP-62): > 100 µM (inactive)
- GI50 (OVCAR-8): 39.5 µM (inactive)
- GI50 (SK-MEL-2): > 100 µM (inactive)
- GI50 (SK-MEL-28): > 100 µM (inactive)
